Patent US8252796B2, “1-butyl-2-hydroxyaralkyl piperazine derivatives and the uses as anti-depression medicine thereof” (CSPC Zhonggi Pharmaceutical Technology (Shijiazhuang) Co. …, priority 2008, dated 2012)
Read-outs that look alike come from different tables or passages of the source. Each block holds one compound with its values, some of them ahead of it.

Experiments:
[1] = biological target: T1, reuptake of 5-HT by brain synaptosomes (prefrontal cortex) (Rattus norvegicus, UniProt P31652); assay: Inhibition of [3H]5-HT reuptake by rat brain synaptosomes, single concentration (Example 35); format: biochemical; conditions: test substance 10 μmol/L; inhibitory rate of 0.1 mM venlafaxine taken as 100%
T1 construct: from tissue; host or cells: rat prefrontal cortex synaptosomes
T1 sequence (P31652 whole entry): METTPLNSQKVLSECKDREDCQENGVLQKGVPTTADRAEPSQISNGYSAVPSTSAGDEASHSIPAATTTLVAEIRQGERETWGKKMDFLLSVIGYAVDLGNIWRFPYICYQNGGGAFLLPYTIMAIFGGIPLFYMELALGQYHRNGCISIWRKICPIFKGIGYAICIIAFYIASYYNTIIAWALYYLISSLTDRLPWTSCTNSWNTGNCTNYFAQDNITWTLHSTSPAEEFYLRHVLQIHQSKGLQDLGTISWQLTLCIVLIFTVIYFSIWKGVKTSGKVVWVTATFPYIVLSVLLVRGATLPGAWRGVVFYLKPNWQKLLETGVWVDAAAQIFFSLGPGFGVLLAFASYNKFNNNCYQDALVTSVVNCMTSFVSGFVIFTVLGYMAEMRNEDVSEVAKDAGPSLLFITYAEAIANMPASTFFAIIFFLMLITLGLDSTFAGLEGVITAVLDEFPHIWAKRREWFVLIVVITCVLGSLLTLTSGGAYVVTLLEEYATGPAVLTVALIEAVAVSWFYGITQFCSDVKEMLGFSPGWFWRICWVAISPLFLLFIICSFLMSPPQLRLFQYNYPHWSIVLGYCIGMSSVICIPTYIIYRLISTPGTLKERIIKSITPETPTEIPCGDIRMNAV
Method: (§1) Studies on the reuptake of monoamine neurotransmitters by brain synaptosomes was performed, which is a currently important mean adopted in the worldwide in pharmacological studies of central nervous. This method can not only be used to study the action mechanism of a drug, but also be used for screening new drugs acting by this mechanism.
(§2) Male SD rats were sacrificed by cervical dislocation and then the brains thereof were taken out rapidly by decollation and placed on ice. Related rain tissues (for [^3H]5-HT and [^3H]NA reuptake experiment, prefrontal cortex was taken; for [^3H]DA reuptake experiment, striatum was taken) were separated and weighed. 10 times (V/W) of 0.32 mol/L ice-cold sucrose solution was added and was homogenized electrically with glass-teflon. The homogenate was centrifugated at 4° C. at 1000 g×10 min. Then the supernatant was taken and centrifugated at 4° C. at 17000 g×20 min. The precipitation was suspended in 30 volume of KRH Buffer (125 mM NaCl, 4.8 mM KCl, 1.2 mM CaCl2, 1.2 mM MgSO4, 1.0 mM KH2PO4, 22 mM NaHCO3, 25 mM HEPES, 10 mM Glucose, 10 μM Pargyline, 0.2 mg/ml Ascorbic Acid) and then was preserved in an ice bath for use. (for NA reuptake experiment, the cortex needed was suspended in 20 volume of KRH Buffer)
(§3) Stock solution of the test substance was thawed immediately before use and diluted with KBH Buffer to 100 μmol/L, 50 μl thereof was added in 500 μl of total reaction system, and the final concentration was 10 μmol/L. Then 50 μl suspended synaptic prepared above was added and mixed evenly, incubated in water bath for 30 min at 37° C. Then […] [^3H] 5-HT (50 nmol/L [^3H]DA or […] [^3H]NA) was added. After incubated at 37° C. for 10 min, the reaction system was immediately taken out and the reaction was stopped by adding 2 ml of ice-cold 150 mmol/L Tris-HCl buffer solution. The samples were collected on the circular fiberglass membrane by vacuum filtration, and the membrane was washed 3 times with 3 ml of ice-cold Tris-HCl buffer solution. The filtration membrane was removed, baked for 15 min in a far-infrared oven and placed into an EP tube. 1.5 ml scintillation fluid was added overnight and was tested by liquid scintillation counter. For the solvent control total binding tube and the non-specific binding tube, no test substance was added; for the total binding tube, 50 μl solvent was added.

[2] = biological target: T2, reuptake of NA by brain synaptosomes (prefrontal cortex) (Rattus norvegicus, UniProt Q9WTR4); assay: Inhibition of [3H]NA reuptake by rat brain synaptosomes, single concentration (Example 35); format: biochemical; conditions: test substance 10 μmol/L; inhibitory rate of 0.1 mM venlafaxine taken as 100%
T2 construct: from tissue; host or cells: rat prefrontal cortex synaptosomes
T2 sequence (Q9WTR4 1-597): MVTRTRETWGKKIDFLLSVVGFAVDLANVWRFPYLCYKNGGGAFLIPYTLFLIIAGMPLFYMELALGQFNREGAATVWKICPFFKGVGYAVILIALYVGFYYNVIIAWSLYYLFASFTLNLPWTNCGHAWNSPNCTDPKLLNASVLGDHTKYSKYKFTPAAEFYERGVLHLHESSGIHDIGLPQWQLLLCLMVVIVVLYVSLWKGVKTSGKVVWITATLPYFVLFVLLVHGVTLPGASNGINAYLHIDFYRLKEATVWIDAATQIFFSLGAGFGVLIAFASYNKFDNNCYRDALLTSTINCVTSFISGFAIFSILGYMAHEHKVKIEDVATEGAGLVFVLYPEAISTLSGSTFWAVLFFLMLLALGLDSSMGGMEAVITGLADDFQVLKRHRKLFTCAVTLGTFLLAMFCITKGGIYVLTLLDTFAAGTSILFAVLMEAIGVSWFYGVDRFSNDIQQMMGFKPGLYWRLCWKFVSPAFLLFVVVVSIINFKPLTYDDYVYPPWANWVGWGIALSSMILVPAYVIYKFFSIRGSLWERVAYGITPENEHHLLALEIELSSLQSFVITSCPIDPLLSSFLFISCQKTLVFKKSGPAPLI
Method: as §1, §2, §3

[3] = biological target: T3, reuptake of DA by brain synaptosomes (striatum) (Rattus norvegicus, UniProt P23977); assay: Inhibition of [3H]DA reuptake by rat brain synaptosomes, single concentration (Example 35); format: biochemical; conditions: test substance 10 μmol/L; inhibitory rate of 0.1 mM 6-hydroxy DA taken as 100%
T3 construct: from tissue; host or cells: rat striatum synaptosomes
T3 sequence (P23977 whole entry): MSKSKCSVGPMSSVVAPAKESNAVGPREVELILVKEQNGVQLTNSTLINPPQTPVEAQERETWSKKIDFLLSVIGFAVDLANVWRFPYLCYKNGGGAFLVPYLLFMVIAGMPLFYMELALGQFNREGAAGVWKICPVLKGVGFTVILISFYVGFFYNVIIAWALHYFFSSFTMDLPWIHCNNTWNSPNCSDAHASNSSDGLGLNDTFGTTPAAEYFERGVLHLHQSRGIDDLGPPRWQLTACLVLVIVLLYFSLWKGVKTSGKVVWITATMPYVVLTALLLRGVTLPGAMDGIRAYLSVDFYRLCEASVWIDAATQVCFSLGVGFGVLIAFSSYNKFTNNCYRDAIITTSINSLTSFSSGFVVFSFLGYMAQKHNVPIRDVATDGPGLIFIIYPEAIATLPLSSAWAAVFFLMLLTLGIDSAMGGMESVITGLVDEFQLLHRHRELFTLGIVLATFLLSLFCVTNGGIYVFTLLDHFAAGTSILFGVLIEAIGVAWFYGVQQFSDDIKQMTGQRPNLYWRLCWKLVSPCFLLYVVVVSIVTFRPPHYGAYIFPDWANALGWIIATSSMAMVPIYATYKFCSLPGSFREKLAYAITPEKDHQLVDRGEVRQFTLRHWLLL
Method: as §1, §2, §3

[4] = test system: ICR mice; assay: Mice Forced Swimming Test (in vivo antidepression activity); conditions: for swimming test: immobility time: n = 12, mean±SD
[5] = biological target: T4, reuptake of [3H]5-HT by prefrontal cortex synaptosomes (Rattus norvegicus, UniProt P31652); assay: IC50 for inhibiting reuptake of [3H]5-HT by brain synaptosomes (Example 36); format: biochemical; conditions: mean, n = 3~4
T4 construct: from tissue; host or cells: rat prefrontal cortex synaptosomes
T4 sequence (P31652 whole entry): as the sequence (P31652 whole entry) above
Method: as §2, with “The precipitation was suspended in 30 volume of KRH Buffer (125 mM NaCl, 4.8 mM KCl, 1.2 mM CaCl2, 1.2 mM MgSO4, 1.0 mM KH2PO4, 22 mM NaHCO3, 25 mM HEPES, 10 mM Glucose, 10 μM Pargyline, 0.2 mg/ml Ascorbic Acid) and then was preserved in an ice bath for use.” left out
(§4) The compounds were used for the studies on inhibition effect (IC50) on reuptake of [^3H]5-HT/NA/DA. At least 5 concentrations each time were settled for each test compound. Each concentration was determined by the average of double twin tubes and the test was repeated for more than 3 times. A series of concentrations of the compounds were prepared by gradient dilution before use. 50 μl thereof was added in total reaction system. Then 50 μl suspended synaptic membrane was added and mixed evenly, incubated in water bath at 37° C. for 30 min. Then 10 nmol/L [^3H] 5-HT (or 50 nmol/L [^3H]DA or 40 nmol/L [^3H]NA) was added and incubated in water bath at 37° C. for 10 min (for [^3H]NA, incubated for 5 min). For the [^3H]5-HT reuptake experiment, 50 μL of fluoxetine (100 μmol/L) was added to the non-specific binding tube; for the [^3H]DA reuptake experiment, 50 μL of cocaine (600 μmol/L) was added to the non-specific binding tube; for the [^3H]NA reuptake experiment, 50 μL of desipramine (100 μmol/L) was added to the non-specific binding tube; for the solvent control, solvent was added to the total binding tube, but no test compound added.
(§5) Sigmoidal curve fitting was performed for the data obtained from all of the test drugs by Origin 6.1, and the IC50 value was calculated.

[6] = biological target: T5, reuptake of [3H]NA by prefrontal cortex synaptosomes (Rattus norvegicus, UniProt Q9WTR4); assay: IC50 for inhibiting reuptake of [3H]NA by brain synaptosomes (Example 36); format: biochemical; conditions: mean, n = 3~4
T5 construct: from tissue; host or cells: rat prefrontal cortex synaptosomes
T5 sequence (Q9WTR4 1-597): as the sequence (Q9WTR4 1-597) above
Method: as §2
(§6) 1. Preparation of Rat Brain Synaptosomes (the Same as Example 35)
as §4, §5

[7] = biological target: T6, reuptake of [3H]DA by striatum synaptosomes (Rattus norvegicus, UniProt P23977); assay: IC50 for inhibiting reuptake of [3H]DA by brain synaptosomes (Example 36); format: biochemical; conditions: mean, n = 3~4
T6 construct: from tissue; host or cells: rat striatum synaptosomes
T6 sequence (P23977 whole entry): as the sequence (P23977 whole entry) above
Method: as §2, §6, §4, §5

[8] = Pharmacokinetics and bioavailability, single i.v. and oral administration in SD rat; format: in vivo; conditions: male, plasma; for Cmax: read-out: Cmax; for AUC (0-t): read-out: AUC (0-t); for half-life: read-out: half life (T½) (converted)
Method: To study the pharmacokinetics parameters and the bioavailability of VIII-9, VIII-10 and SIPI5286 when single i.v. and oral administration in SD rat
Eighteen male rats were randomized into 6 groups and were administrated with the three compounds via i.v. and oral route, respectively. The dosage was 10 mg/kg (IV) and 50 mg/kg (PO). The test substance was dissolved in the solution of 5% DMSO/95% HP-β-CD aqueous solution (30%), and were administrated to the animal via i.v. and oral route. Blood plasma was collected at a serial of time points after i.v. and oral administration, and the blood drug concentrations were determined by LC/MS/MS. Then the pharmacokinetics parameters and the bioavailability were calculated based on the blood drug concentrations.

Compound: CCCC[C@H]([C@H](O)c1ccc2c(Cl)c(OC)ccc2c1)N1CCN(C(c2ccccc2)c2ccccc2)CC1 (racemic) [VIII-20, (1SR,2SR)-N^1-benzhydryl-N^4-[1-butyl-2-(5′-chloro-6′-methoxyl-2′-naphthyl)hydroxyethyl]piperazine]
Inhibition on the reuptake of 5-HT(%) [1]: 0%
inhibition on the reuptake of NA(%) [2]: 78%
inhibition on the reuptake of DA(%) [3]: 57%

Compound: CCCC[C@H]([C@@H](O)c1ccc2c(Cl)c(OC)ccc2c1)N1CCN(CC=Cc2ccccc2)CC1 (racemic) [VIII-21, (1SR,2RS)-N^1-cinnamyl-N^4-[1-butyl-2-(5′-chloro-6′-methoxyl-2′-naphthyl)hydroxyethyl]piperazine]
Inhibition on the reuptake of 5-HT(%) [1]: 81%
inhibition on the reuptake of NA(%) [2]: 87.5%
inhibition on the reuptake of DA(%) [3]: 90%

Compound: COc1ccc(C(CN(C)C)C2(O)CCCCC2)cc1 (centres unmarked) [venlafaxine, reference compound]
inhibition on the reuptake of NA(%) [2]: 100%
swimming test: immobility time ([4]; one week oral administration, 50 mg/kg): 83.5 ± 29.0 s

Compound: COc1ccc2cc(C(O)C(C)N3CCN(Cc4ccccc4)CC3)ccc2c1Cl (centres unmarked) [SIPIyy24, N^1-benzyl-N^4-[1-methyl-2-(5′-chloro-6′-methoxyl-2′-naphthyl) hydroxyethyl]piperazine, reference compound]
IC50 [5]: 200 nM
IC50 [6]: 1000 nM
IC50 [^3H]DA reuptake [7]: No activity detected

Compound: CCCC[C@H]([C@@H](O)c1ccc2c(Cl)c(OC)ccc2c1)N1CCN(C(c2ccccc2)c2ccccc2)CC1 (racemic) [VIII-19, (1SR,2RS)-N^1-benzhydryl-N^4-[1-butyl-2-(5′-chloro-6′-methoxyl-2′-naphthyl)hydroxyethyl]piperazine]
Inhibition on the reuptake of 5-HT(%) [1]: 73.4%
inhibition on the reuptake of NA(%) [2]: 103.6%
inhibition on the reuptake of DA(%) [3]: 95%

Inhibition on the reuptake of 5-HT(%) [1]: 65.1%
inhibition on the reuptake of NA(%) [2]: 144%
inhibition on the reuptake of DA(%) [3]: 96%
Compound: CCCC[C@@H]([C@H](O)c1ccc2c(Cl)c(OC)ccc2c1)N1CCN(c2ccccc2OC)CC1 (racemic) [VIII-3, (1SR,2RS)-N^1-o-methoxylphenyl-N^4-[1-butyl-2-(5′-chloro-6′-methoxyl-2′-naphthyl)hydroxyethyl]piperazine]

Compound: COc1ccc2cc([C@@H](O)[C@H](C)N3CCN(Cc4ccccc4)CC3)ccc2c1Cl [SIPI5286, reference compound]
IC50 [5]: 12 nM
IC50 [6]: 185 nM
IC50 [7]: 1150 nM
ED50 ([4]; Mus musculus, single oral administration): 28.9 mg/kg
swimming test: immobility time ([4]; one week oral administration, 10.4 mg/kg): 123.8 ± 21.68 s
swimming test: immobility time ([4]; one week oral administration, 17.3 mg/kg): 102.9 ± 37.94 s
swimming test: immobility time ([4]; one week oral administration, 28.8 mg/kg): 97.2 ± 28.33 s
swimming test: immobility time ([4]; one week oral administration, 48 mg/kg): 95.5 ± 27.0 s
swimming test: immobility time ([4]; single oral administration, 10.4 mg/kg): 107.9 ± 37.19 s
swimming test: immobility time ([4]; single oral administration, 17.3 mg/kg): 105.4 ± 33.11 s
swimming test: immobility time ([4]; single oral administration, 28.8 mg/kg): 92.1 ± 23.11 s
swimming test: immobility time ([4]; single oral administration, 48 mg/kg): 90.1 ± 26.02 s
Cmax ([8]; iv, i.v. 10 mg/kg, (5 min)): 13900 ng/mL
AUC (0-t) ([8]; iv, i.v. 10 mg/kg): 12600 ng·h/mL
half-life ([8]; iv, i.v. 10 mg/kg): 3.41 h
bioavailability ([8]; oral 50 mg/kg vs i.v. 10 mg/kg, read-out: bioavailability): 51.6%
AUC (0-t) ([8]; oral 50 mg/kg): 30300 ng·h/mL
Cmax ([8]; oral 50 mg/kg): 6860 ng/mL
Tmax ([8]; oral 50 mg/kg, read-out: Tmax): 0.5 h
half-life ([8]; oral 50 mg/kg): 5.71 h

Compound: NCCc1cc(O)c(O)cc1O [6-hydroxy DA, reference compound]
inhibition on the reuptake of DA(%) [3]: 100%

Inhibition on the reuptake of 5-HT(%) [1]: 23%
inhibition on the reuptake of NA(%) [2]: 146.5%
inhibition on the reuptake of DA(%) [3]: 68%
Compound: CCCC[C@@H]([C@@H](O)c1ccc2c(Cl)c(OC)ccc2c1)N1CCN(c2ccccc2OC)CC1 (racemic) [VIII-4, (1SR,2SR)-N^1-o-methoxylphenyl-N^4-[1-butyl-2-(5′-chloro-6′-methoxyl-2′-naphthyl)hydroxyethyl]piperazine]

Inhibition on the reuptake of 5-HT(%) [1]: 82.3%
inhibition on the reuptake of NA(%) [2]: 78.9%
inhibition on the reuptake of DA(%) [3]: 94%
Compound: CCCC[C@@H]([C@@H](O)c1ccc2c(Cl)c(OC)ccc2c1)N1CCN(CC=Cc2ccccc2)CC1 (racemic) [VIII-22, (1SR,2SR)-N^1-cinnamyl-N^4-[1-butyl-2-(5′-chloro-6′-methoxyl-2′-naphthyl)hydroxyethyl]piperazine]
